Source: BigSolDB 2.1

CO[C@@]1(NC(=O)CSCC#N)C(=O)N2C(C(=O)O)=C(CSc3nnnn3C)CS[C@@H]21
solubility (mole fraction)
Conditions	278.15 K	283.15 K	288.15 K	293.15 K	298.15 K	303.15 K
in ethanol	0.000266	0.000276	0.000343	0.000435	0.00049	0.000659
in methanol	0.00163	0.00187	0.00222	0.00273	0.00364	0.00445
